Format in all cases: in vivo
In experiment [1] the test system is Boll Weevil (Anthonomus grandis). Description: Boll weevil (Anthonomus grandis), insect diet microtiter plate test. Particulars: 120 h, concentration of the test solution 2500 mg/L, egg and larval mortality after 5 days. The protocol:
The compounds were formulated in 75:25 (vol:vol) water:DMSO.
For evaluating control of boll weevil (Anthonomus grandis) the test unit consisted of 24-well-microtiter plates containing an insect diet and 20-30 A. grandis eggs. Different concentrations of formulated compounds were sprayed onto the insect diet at 20 μl, using a custom built micro atomizer, at two replications. After application, the microtiter plates were incubated at 23±1° C. and 50±5% relative humidity for 5 days. Egg and larval mortality was then visually assessed.

Experiment [2] relates to Vetch Aphid (Megoura viciae). As to the kind of experiment: Vetch aphid (Megoura viciae), bean leaf disk microtiterplate test. Particulars: foliar, 144 h, concentration of the test solution 2500 mg/L, 6 days. The protocol:
The active compounds were formulated in 1:3 (vol:vol) DMSO:water with different concentrations of formulated compounds.
Bean leaf disks were placed into microtiterplates filled with 0.8% agar-agar and 2.5 ppm OPUS™. The leaf disks were sprayed with 2.5 μl of the test solution and 5 to 8 adult aphids were placed into the microtiterplates which were then closed and kept at 23±1° C. and 50±5% relative humidity under fluorescent light for 6 days. Mortality was assessed on the basis of vital, reproduced aphids. Aphid mortality and fecundity was then visually assessed.

The test system of experiment [3] is Cowpea Aphid (aphis craccivora). Description: Cowpea aphid (aphis craccivora), spray on potted cowpea plants. Particulars: population reduction assessed after 24, 72 and 120 hours, in comparison with untreated controls. The protocol:
The active compounds were formulated in 50:50 (vol:vol) acetone:water. The test solution was prepared at the day of use.
Potted cowpea plants colonized with 100-150 aphids of various stages were sprayed after the pest population had been recorded. Population reduction was assessed after 24, 72, and 120 hours.

Experiment [4] relates to Cotton Aphid (aphis gossypii, Mixed Life Stages). As to the kind of experiment: Cotton aphid (aphis gossypii, mixed life stages), cotyledon dip test. Particulars: 120 h, mortality counts after 5 days, in comparison with untreated controls. The text has this: (§1) The active compounds were formulated in 50:50 (vol:vol) acetone:water and 100 ppm Kinetica™ surfactant.
Cotton plants at the cotyledon stage (one plant per pot) were infested by placing a heavily infested leaf from the main colony on top of each cotyledon. The aphids were allowed to transfer to the host plant overnight, and the leaf used to transfer the aphids was removed. The cotyledons were dipped in the test solution and allowed to dry. After 5 days, mortality counts were made.

In experiment [5] the test system is Green Peach Aphid (Myzus persicae, Mixed Life Stages). As to the kind of experiment: Green peach aphid (Myzus persicae, mixed life stages), pepper leaf dip test. Particulars: foliar, 120 h, after 5 days, in comparison with untreated controls.
Excerpt: as §1
Pepper plants in the 2nd leaf-pair stage (variety ‘California Wonder’) were infested with approximately 40 laboratory-reared aphids by placing infested leaf sections on top of the test plants. The leaf sections were removed after 24 hr. The leaves of the intact plants were dipped into gradient solutions of the test compound and allowed to dry. Test plants were maintained under fluorescent light (24 hour photoperiod) at about 25° C. and 20-40% relative humidity. Aphid mortality on the treated plants, relative to mortality on check plants, was determined after 5 days.

As to `O=C(Nc1cccnc1)c1cnn(-c2cccc([N+](=O)[O-])c2)c1C(F)F` [Compound 153], the mortality at 2500 µg/mL was 100% in experiment [1] and at least 80% in experiment [2].

Take `CC(C)c1c(C(=O)Nc2cccnc2)cnn1-c1ccccc1` [Compound 120]: the mortality at 300 ppm in experiment [3] was at least 75%; in experiment [4], at least 75%; in experiment [5] it was at least 50%. This molecule also displayed a mortality at 2500 µg/mL in experiment [2] of at least 80%.

As for `O=C(Nc1cccnc1)c1cnn(-c2ccccn2)c1` [Compound 105], the mortality at 300 ppm in experiment [4] was at least 75%; in experiment [5], at least 50%. This molecule also showed a mortality at 2500 µg/mL in experiment [1] of 100%.

For the molecule `CCn1ncc(C(=O)Nc2cccnc2)c1C` [Compound 72], the mortality at 300 ppm in experiment [3] and in experiment [4] was at least 75% each time. For the same molecule, the mortality at 2500 µg/mL in experiment [2] is at least 80%.

`CCCN(C(=O)c1cn(C)nc1C(F)(F)F)c1cccnc1` [Compound 202]: the mortality at 300 ppm in experiment [3] was at least 75%; in experiment [4], at least 75%; in experiment [5], at least 50%. The same molecule showed a mortality at 2500 µg/mL in experiment [2] of at least 80%.

`O=C(Nc1cccnc1)c1cnn(C2CC2)c1` [Compound 119]: the mortality at 300 ppm in experiment [3] was at least 75%; in experiment [4], at least 75%; in experiment [5], at least 50%. In addition, the mortality at 2500 µg/mL in experiment [2] was at least 80%.

Regarding `Cc1nn(C)cc1C(=O)Nc1cccnc1` [Compound 70], the mortality at 300 ppm in experiment [3] was at least 75%; in experiment [4], at least 75%; in experiment [5], at least 50%.

Take `Cc1c(C(=O)Nc2cccnc2)cnn1C(F)F` [Compound 208]: the mortality at 300 ppm was at least 75% in experiment [3], at least 75% in experiment [4] and at least 50% in experiment [5].

In the case of `O=C(Nc1cccnc1)c1cn(C(F)F)nc1C(F)(F)F` [Compound 192], the results for the mortality at 300 ppm in experiment [3], in experiment [4] and in experiment [5] were at least 75%, at least 75% and at least 50%, respectively. In addition, the mortality at 2500 µg/mL in experiment [1] was determined as 100%.

The molecule `O=C(Nc1cccnc1)c1cnn(-c2ccc(F)cc2)c1` [Compound 113] registered a mortality at 300 ppm in experiment [3] of at least 75%.

Consider `CC(C)n1cc(C(=O)Nc2cccnc2)cn1` [Compound 200], for which the mortality at 300 ppm in experiment [3] is at least 75%; in experiment [4], at least 75%; in experiment [5], at least 50%.

`CC(C)c1c(C(=O)Nc2cccnc2)cnn1C` [Compound 90] showed a mortality at 300 ppm in experiment [3] of at least 75%.

Take `Cn1ccc(C(=O)Nc2cccnc2)n1` [Compound 1]: the figures for the mortality at 300 ppm in experiment [3], in experiment [4] and in experiment [5] were at least 75%, at least 75% and at least 50%, respectively.

Consider `Cc1ccc(S(=O)(=O)N(C(=O)c2cn(C)nc2C(F)(F)F)c2cccnc2)cc1` [Compound 136], for which the mortality at 300 ppm is at least 75% in experiment [3], at least 75% in experiment [4] and at least 50% in experiment [5]. This molecule also displayed a mortality at 2500 µg/mL in experiment [2] of at least 80%.

For the molecule `CCc1c(C(=O)Nc2cccnc2)cnn1-c1ccc([N+](=O)[O-])cc1` [Compound 144], the results for the mortality at 300 ppm in experiment [3], in experiment [4] and in experiment [5] were at least 75%, at least 75% and at least 50%, respectively. In experiment [2], the mortality at 2500 µg/mL was at least 80%.

For `CO/N=C(/Nc1cccnc1)c1cn(C)nc1C(F)(F)F` [Compound 242], the mortality at 300 ppm in experiment [3] is at least 75%; in experiment [4], at least 75%; in experiment [5], at least 50%. For the same molecule, the mortality at 2500 µg/mL in experiment [2] was at least 80%.

For `O=C(Nc1cccnc1)c1cnn(Cc2ccc(Cl)cc2)c1` [Compound 81], the values for the mortality at 300 ppm in experiment [3] and in experiment [5] were at least 75% and at least 50%, respectively. In experiment [1], this molecule showed a mortality at 2500 µg/mL of 100%.

Take `CC(C)N(C(=O)c1cn(C)nc1C(F)(F)F)c1cccnc1` [Compound 130]: the mortality at 300 ppm in experiment [4] was at least 75%; in experiment [5] it was at least 50%. Further, in experiment [2], the mortality at 2500 µg/mL was at least 80%.

`O=C(Nc1cccnc1)c1cn(-c2ccc([N+](=O)[O-])cc2)nc1C(F)F` [Compound 171] registered a mortality at 2500 µg/mL in experiment [1] of 100%.

On to `CN(C(=O)c1cnn(C(F)F)c1)c1cccnc1` [Compound 222], for which the mortality at 300 ppm in experiment [3] is at least 75%; in experiment [4], at least 75%; in experiment [5], at least 50%.

With `CCCCCCCn1cc(C(=O)Nc2cccnc2)cn1` [Compound 140], the mortality at 2500 µg/mL in experiment [2] is at least 80%. Moreover, the mortality at 300 ppm in experiment [5] was at least 50%.

In the case of `O=C(Nc1cccnc1)c1cnn(C(F)F)c1C(F)F` [Compound 188], the mortality at 300 ppm in experiment [3] was at least 75%; in experiment [4], at least 75%; in experiment [5] it was at least 50%. Also, the mortality at 2500 µg/mL in experiment [1] worked out at 100%.

Turning to `N#CN(C(=O)c1cnn(C(F)F)c1C(F)F)c1cccnc1` [Compound 210], the mortality at 300 ppm in experiment [3] was at least 75%; in experiment [4], at least 75%; in experiment [5], at least 50%. In experiment [2], this molecule gave a mortality at 2500 µg/mL of at least 80%.

Take `CCn1cc(C(=O)N(C)c2cccnc2)cn1` [Compound 187]: the values for the mortality at 300 ppm in experiment [3], in experiment [4] and in experiment [5] were at least 75%, at least 75% and at least 50%, respectively.

For the molecule `COc1ccc(-n2ncc(C(=O)Nc3cccnc3)c2C(F)(F)F)cc1` [Compound 226], the mortality at 300 ppm in experiment [4] is at least 75%; in experiment [5], at least 50%. The molecule also had a mortality at 2500 µg/mL in experiment [2] of at least 80%.

Regarding `O=C(Nc1cccnc1)c1cnn(-c2c(F)cccc2F)c1C(F)F` [Compound 162], the values for the mortality at 2500 µg/mL in experiment [1] and in experiment [2] were 100% and at least 80%, respectively.

Consider `CN(C(=O)c1cnn(C)c1)c1cccnc1` [Compound 177], for which the mortality at 300 ppm is at least 75% in experiment [3], at least 75% in experiment [4] and at least 50% in experiment [5].

`O=C(Nc1cccnc1)c1cnn(-c2ccccc2)c1` [Compound 106] displayed a mortality at 300 ppm in experiment [3] of at least 75%. The mortality at 2500 µg/mL in experiment [1] was 100%.

In the case of `CCn1cc(C(=O)N(C)c2cccnc2)c(C(F)F)n1` [Compound 182], the mortality at 300 ppm is at least 75% in experiment [3], at least 75% in experiment [4] and at least 50% in experiment [5]. The mortality at 2500 µg/mL in experiment [2] was at least 80%.

`Cc1cc(C(=O)Nc2cccnc2)n(C)n1` [Compound 3]: the values for the mortality at 300 ppm in experiment [3], in experiment [4] and in experiment [5] were at least 75%, at least 75% and at least 50%, respectively. The molecule also had a mortality at 2500 µg/mL in experiment [2] of at least 80%.

As for `C#CCN(C(=O)c1cn(C)nc1C(F)(F)F)c1cccnc1` [Compound 141], the mortality at 300 ppm in experiment [3] is at least 75%; in experiment [4], at least 75%; in experiment [5], at least 50%. In addition, the mortality at 2500 µg/mL in experiment [2] is at least 80%.

Take `O=C(Nc1cccnc1)c1cnn(-c2ccc(F)cc2)c1I` [Compound 124]: the mortality at 300 ppm was at least 75% in experiment [3], at least 75% in experiment [4] and at least 50% in experiment [5]. In experiment [2], this molecule showed a mortality at 2500 µg/mL of at least 80%.

For the molecule `Cn1ncc(C(=O)Nc2cccnc2)c1-c1ccccc1` [Compound 71], the mortality at 300 ppm in experiment [4] is at least 75%; in experiment [5], at least 50%. The molecule also displayed a mortality at 2500 µg/mL in experiment [2] of at least 80%.

Take `CC(C)n1cc(C(=O)Nc2cccnc2)cn1` [Compound 97]: in experiment [2], the mortality at 2500 µg/mL was at least 80%.

Take `Cc1cc(C(=O)Nc2cccnc2)nn1C` [Compound 10]: the results for the mortality at 300 ppm in experiment [3], in experiment [4] and in experiment [5] were at least 75%, at least 75% and at least 50%, respectively.

On to `O=C(Nc1cccnc1)c1cnn(C(F)(F)F)c1` [Compound 205], for which the mortality at 300 ppm in experiment [3] was at least 75%; in experiment [4], at least 75%; in experiment [5], at least 50%. Further, the mortality at 2500 µg/mL in experiment [2] was at least 80%.

On to `O=C(Nc1cccnc1)c1cnn(-c2ccc(Cl)cc2)c1C(F)F` [Compound 86], for which the mortality at 300 ppm in experiment [3] was at least 75%; in experiment [4] it was at least 75%; in experiment [5], at least 50%. This molecule also returned a mortality at 2500 µg/mL in experiment [1] of 100%.

On to `Cc1c(C(=O)Nc2cccnc2)cnn1-c1ccc(F)cc1` [Compound 165], for which the mortality at 300 ppm in experiment [3] was at least 75%; in experiment [4], at least 75%; in experiment [5], at least 50%. The molecule further showed a mortality at 2500 µg/mL in experiment [2] of at least 80%.

In the case of `Cc1c(C(=O)N(C)c2cccnc2)cnn1C` [Compound 178], the mortality at 300 ppm in experiment [3] was at least 75%; in experiment [4], at least 75%; in experiment [5], at least 50%.

Source of the values: patent publication US8642597B2, “Pyrazole compounds for controlling invertebrate pests” (BASF SE, priority 2007, dated 2014).
